Data from patent publication US20260132172A1, “IN VITRO BIOSYNTHESIS OF DIVERSE PYRIDINE-BASED MACROCYCLIC PEPTIDES” (The Brd. of Trustees of the Univ. of Illinois, priority 2022, published 2026).
Where a SMILES comes first, the peptide text is derived from it.

What was measured:
MroB = test: Competition fluorescence polarization with fluorescein-Δ12MroA1, MroB; assay type: binding, Micromonospora rosaria; conditions: for IC50: competition FP, 80 nM enzyme, 5 nM labeled Δ12MroA1
Procedure: (§1) The initial sample contained 80 nM enzyme, 5 nM labeled Δ12MroA1 peptide, and competitor peptide (concentration is from 20 μM to 100 μM, depending on the experiment). In a black 384-well plate (Corning 3575), 30 μL of initial sample was added to the first well, followed by 13 2-fold dilutions into subsequent wells containing 80 nM MBP-MroB and 5 nM labeled Δ12MroA1. The plate was covered from light and incubated at room temperature for 10 min, and then fluorescence polarization was measured (Biotek Synergy H4 hybrid reader) using the following filter (Ex: Em—485 nm/20 nm: 518 nm/20 nm). The obtained data was converted to anisotropy value and plotted against peptide concentration, and fitted to dose-response function:
(§2) Where: y=anisotropy value, A1=minimum anisotropy, A2=maximum anisotropy, p=Hill's coefficient, x=competitor concentration. The obtained IC50 was used to calculate inhibitor constant Krusing the following equation: 12
(§3) In cases where competitor concentration was not high enough to achieve a plateau, the competition curve was fitted with minimum anisotropy fixed to be the same value as the anisotropy value of the free probe solution. This calculation assumed that the labeled peptide was completely displaced from the enzyme binding pocket at a very high concentration of the competitor. […] The specific minimum anisotropy used in this experiment for both MroB and MroD was 65.

MroD [1] = test: Competition fluorescence polarization with fluorescein-Δ12MroA1, MroD; assay type: binding, Micromonospora rosaria; conditions: competition FP, 80 nM enzyme, 5 nM labeled Δ12MroA1
Procedure: as §1, §2, §3

MroB/C = MroB/C dehydration (Dha formation) of MroA precursor peptide variants, MALDI-TOF-MS / LC-MS/MS; assay type: biochemical, Micromonospora rosaria; conditions: for dehydration by MroBC (site and extent): MroBC assays followed by LC-MS/MS analysis, result in words; for Dha formation: MroA2 multi-site variants, in vitro translated, MALDI-TOF-MS
Procedure: In a 0.65 mL protein low-binding Eppendorf tube placed on ice. 0.75 μL of purified mroA variant template DNA was mixed with 0.75 μL of Solution B and 1 μL of Solution A of PURExpress In vitro Protein Synthesis Kit (E6800L) purchased from NEB (total volume of reaction is 2.5 μL). The translation reactions were performed at 37° C. for 1 h on an aluminum block.
For a full MroBCD substrate scope investigation, a total translation volume for each variant of 7.5 μL was performed. 1.5 μL of 90 mM iodoacetamide (IAA) was added to quench dithiothreitol (DTT) in the translation reaction mixture, a thiol-based nucleophile that can react with electrophilic dehydroalanines generated from MroBC-catalyzed dehydration assays. The translation product was split into two parts with these corresponding volumes: 3 μL and 6 μL. In the 6 μL part. 10.2 μL of the enzyme mix containing enzymes and cofactors was added along with 1.8 μL 90 mM ATP (pH 7.5), which was used to initiate the reaction. The enzyme mix was made by adding these components in the following order: HEPES pH 7.5, MgCl2, glutamate, T. bispora tRNA^Glu (CUC), thermostable inorganic pyrophosphatase (TIPP), TEV (L56V/S135G/S219V) (w/w ratio with a total amount of MBP-tagged protein=1:10), MBP-MroB, MBP-MroC, and T. bispora GluRS. The enzyme mix was incubated 25 min at room temperature before adding to the translation product to facilitate in situ TEV-catalyzed cleavage of MBP from MBP-MroB and MBP-MroC. The enzymatic reaction proceeded for 1 h at room temperature. Overall, the concentration of components in the 18 μL reaction mix is as follows: 50 mM HEPES pH 7.5, 5 mM MgCl2. L-glutamate 1 mM, 3 μM T. bispora tRNA^Glu, 1 μM T. bispora GluRS, 2 μM MBP-MroB, 2 μM MBP-MroC, […], 0.027 U/μL TIPP, and 5 mM IAA. In addition, the 3 μL part was incubated with the same buffer lacking enzymes and tRNA as a translation control.
The reactions were performed similarly as described above, with 10 μM substrate concentration and without IAA. The total volume of each reaction is 100 μL.
Enzymatic assays were desalted using solid-phase extraction prior to LC-ESI-MS/MS analysis. Specifically, except for the thiazol(in)es-containing pyritide (which utilize 8 mg Pierce C18 Spin Column), the samples were applied to Toptip C18 (10-200 μL, Glygen Corp) wetted with 50 μL of 80% acetonitrile (0.1% formic acid) and equilibrate with 150 μL of 0.1% formic acid following the manufacturer instructions. The C18 columns (tips) are then washed with 150 μL of 0.1% formic acid and eluted using 100 μL 80% acetonitrile (0.1% formic acid). The samples were then dried utilizing lyophilization and redissolved in 25% acetonitrile (80 μL for enzymatic assays of in vitro-translated substrates and 200 μL for enzymatic assays of purified substrates). Then 20 μL of each sample was injected into an Agilent AdvanceBio Peptide Plus column (2.1×150 mm, 2.7 μm) equipped with an Agilent 6545B Q-TOF interfaced with an Agilent 1290 Infinity II LC system. Mobile phase solvents were composed of H2O, 0.1% formic acid (Solvent A), and acetonitrile 0.1% formic acid (Solvent B). The column compartment was maintained at 35° C. during all experiments. The column was equilibrated with 5 column volumes of starting mobile phase (95% A and 5% B) between injections. The gradient of all LC runs was as follows: 0-2 min: 95% A 5% B, 2-3 min: 70% A 30% B, 3-18 min: 20% A 80% B, 18-20 min: 5% A 95% B. The samples were run to waste for the first 3 min before applying to the mass spectrometer. Mass range was set from 100 to 1700 m/z (except for 412MroA1 W7G: 100-3000 m/z). MS parameters were as follows: gas, 320° C. at 8 L/min: nebulizer, 35 psig: nozzle voltage, 1000 V: sheath gas, 350° C. at 11 L/min: capillary, 3500 V: fragmentor, 125 V: skimmer, 65 V: MS scan rate (10) spectra/s): MS-MS scan rate (5 spectra/s); and isolation width (MS/MS), 1.3 m z. […]

[2] = target: MBP-MroB (Micromonospora rosaria MroB with maltose-binding protein fused to the N-terminus) (Micromonospora rosaria) [MBP: P0AEX9]; test: competition fluorescence polarization against fluorescein-Δ12MroA1
[3] = target: MBP-MroD (Micromonospora rosaria MroD with maltose-binding protein fused to the N-terminus) (Micromonospora rosaria) [MBP: P0AEX9]; test: as above
MroD [4] = test: MroD [4+2] macrocyclization of didehydrated MroA2 variants, MALDI-TOF-MS; assay type: biochemical, Micromonospora rosaria; set-up: key: +++ indicates enzyme activity roughly equal to wild-type MroA2; ++ indicates modestly reduced enzyme activity; + indicates severely reduced enzyme activity; − indicates no detectable enzyme activity (no macrocycles detected); conditions: MroA2 multi-site variants; qualitatively estimated from leader peptide vs remaining didehydrated intermediate
Procedure: After incubation, the enzyme reaction (18 μL) was split into two equal parts. One part was treated with MBP-MroD such that the final concentration of MBP-MroD is 3 μM, and the other part was added the same volume but with buffer lacking MBP-MroD (50 mM HEPES, 300 mM NaCl, 2.5% glycerol, 0.5 mM TCEP). The reaction further proceeded for 1.5 h at room temperature. All reaction mixture was then desalted with solid-phase extraction using Ziptip with 0.6 μL C18 resin (EMD Millipore) and crystallized on an MTP384 steel target plate using either saturated sinapic acid or 50 mg/mL Super DHB [dissolved in 60% acetonitrile and 0.1% trifluoroacetic acid (TFA)] as the matrix. The crystallized spots were then analyzed using MALDI-TOF-MS (Bruker Ultraflex). The external standard for MALDI-TOF-MS analysis is ProteoMass Peptide and Protein MALDI-MS Calibration Kit (Sigma).

| Compound | Dha formation (MroB/C) | Relative MroD conversion (MroD [4]) | other results |
| --- | --- | --- | --- |
| CC[C@H](C)[C@H](NC(=O)[C@H](CC(=O)O)NC(=O)[C@H](CC(C)C)NC(=O)[C@H](CC(=O)O)NC(=O)[C@@H](N)CO)C(=O)N[C@H](C(=O)N[C@@H](CC(=O)O)C(=O)N[C@@H](CC(C)C)C(=O)N[C@@H](CC(=O)O)C(=O)N[C@@H](CC(C)C)C(=O)N[C@@H](C)C(=O)N[C@H](C(=O)N[C@@H](CC(=O)O)C(=O)N[C@@H](CCC(=O)O)C(=O)N[C@@H](CCC(=O)O)C(=O)N[C@@H](CC(C)C)C(=O)N[C@@H](C)C(=O)N[C@@H](C)C(=O)N[C@@H](CC(C)C)C(=O)N[C@@H](CO)C(=O)N[C@H](C(=O)NCC(=O)NCC(=O)N[C@@H](CC(C)C)C(=O)NCC(=O)N[C@@H](CC(N)=O)C(=O)N[C@H](C(=O)N[C@@H](CCC(=O)O)C(=O)N[C@H](C(=O)NCC(=O)N[C@@H](C)C(=O)N[C@@H](CO)C(=O)NCC(=O)N[C@@H](Cc1c[nH]c2ccccc12)C(=O)N[C@@H](CC(C)C)C(=O)NCC(=O)N[C@@H](CO)C(=O)N[C@@H](Cc1c[nH]c2ccccc12)C(=O)N[C@H](C(=O)N[C@H](C(=O)OC)[C@@H](C)CC)C(C)C)C(C)C)[C@@H](C)O)C(C)C)C(C)C)C(C)C [Δ12MroA1-COOMe] (H-SDLDIVDLDLAVDEELAALSVGGLGNTEVGASGWLGSWVI-OMe) |  |  | IC50 (MroB): 4200 ± 1700 nM; loss in binding affinity to MroB (MroB; relative to Δ12MroA1): ~8 fold; IC50 (MroD [1]): 400 ± 60 nM |
| Ac-GASGWLGSWVI-OH [GlyAla-MroA1 core, Ac-GASGWLGSWVI] |  |  | IC50 (MroB): 27200 ± 1900 nM; dehydration by MroBC (site and extent) (MroB/C): only Ser6 is dehydrated; IC50 (MroD [1]): 40900 ± 5000 nM |
| GlyAla-MroA1 core (peptide) |  |  | IC50 [2]: 27200 nM; IC50 [3]: 40900 nM |
| H-SDLDIVDLDLAVDEELAALSVGGLGNTEVGA-OH [Δ12MroA1 Leader] |  |  | IC50 (MroB): 19400 ± 1600 nM; IC50 (MroD [1]): 16000 ± 4400 nM |
| H-SDLDIVDLDLAVDEELAALSVGGLGNTEVGASGWLGSGVI-OH [Δ12MroA1-W7G] |  |  | IC50 (MroB): 8100 ± 3900 nM; dehydration by MroBC (site and extent) (MroB/C): only Ser1 is predominantly dehydrated; IC50 (MroD [1]): 2400 ± 300 nM |
| H-SDLDIVDLDLAVDEELAALSVGGLGNTEVGASGWLGSWGI-OH [Δ12MroA1-V8G] |  |  | IC50 (MroB): 1100 ± 200 nM; IC50 (MroD [1]): 1700 ± 400 nM |
| H-SDLDIVDLDLAVDEELAALSVGGLGNTEVGASGWLGSWVG-OH [Δ12MroA1-I9G] |  |  | IC50 (MroB): 2000 ± 600 nM; IC50 (MroD [1]): 910 ± 90 nM |
| SGDAMRWRSWLI [Number 53-A8R] | 2 Dha | − |  |
| SGGYRPHSWLI [Number 38] | 2 Dha | − |  |
| SGHYKPQASWLI [Number 55] | 2 Dha | − |  |
| SGHYKPQRSWLI [Number 55-A8R] | 2 Dha | − |  |
| SGIAKEVQSWLI [Number 47] | 2 Dha | − |  |
| SGIAKEVRSWLI [Number 47-Q8R] | 2 Dha | − |  |
| SGKALEFSWLI [Number 29] | 2 Dha | − |  |
| SGLQHGKRSWLI [Number 52-Y8R] | 2 Dha | − |  |
| SGLQHGKYSWLI [Number 52] | 2 Dha | − |  |
| SGRANSWLI [Number 2] | 2 Dha | − |  |
| SGRYAGWSWLI [Number 39] | 2 Dha | − |  |
| SGVKADSWLI [Number 4] | 2 Dha | − |  |
| SGYDRQYSWLI [Number 56] | 2 Dha | − |  |
| SGYHFHNRSWLI [Number 54-V8R] | 2 Dha | − |  |
| SGYHFHNVSWLI [Number 54] | 2 Dha | − |  |
| Δ12MroA1 (variant of MroA1 in which the first 12 residues were deleted) (peptide) |  |  | IC50 [2]: 680 nM; IC50 [3]: 900 nM |
| Δ12MroA1 Leader (peptide) |  |  | IC50 [2]: 19400 nM; IC50 [3]: 16000 nM |
| Δ12MroA1-COOMe (peptide) |  |  | IC50 [2]: 4200 nM; fold loss in binding affinity (against Δ12MroA1) [2]: 8 fold; IC50 [3]: 400 nM |
| Δ12MroA1-I9G (peptide) |  |  | IC50 [2]: 2000 nM; IC50 [3]: 910 nM |
| Δ12MroA1-V8G (peptide) |  |  | IC50 [2]: 1100 nM; IC50 [3]: 1700 nM |
| Δ12MroA1-W7G (peptide) |  |  | IC50 [2]: 8100 nM; IC50 [3]: 2400 nM |
